Assay results from ChEMBL document CHEMBL1122287, “N2-1H-benzimidazol-2-yl-N4-phenyl-2,4-pyrimidinediamines and N2-1H-benzimidazol-2-yl-5,6,7,8-tetrahydro-N4-phenyl-2,4-quinazolinediamines as potential antifilarial agents” (1983).

Key:
[1] = system: Brugia pahangi; assay: Antifilarial activity against Brugia pahangi in jirds was determined after subcutaneous administration of 100 mg/kg/day.; type: functional, organism-based
[2] = system: Litomosoides carinii; assay: Antifilarial activity against Litomosoides carinii adults; type: functional; design: concentration or dose not given beside the values
[3] = system: Litomosoides carinii; assay: Antifilarial activity against circulating Litomosoides carinii microfilaria; type: functional; design: concentration or dose not given beside the values

SMILES | Reduction [1] | Reduction [2] | Reduction [3]
Cc1cc(Nc2ccc(O)c(CN3CCN(C)CC3)c2)nc(Nc2nc3cc(Cl)c(Cl)cc3[nH]2)n1 | Not significant | <60% | <90%
CNCc1cc(Nc2cc(C)nc(Nc3nc4cc(Cl)c(Cl)cc4[nH]3)n2)ccc1O | Not significant | <60% | <90%
CCNCc1cc(Nc2cc(C)nc(Nc3nc4cc(Cl)c(Cl)cc4[nH]3)n2)ccc1OC | Not significant | <60% | <90%
CCNCc1cc(Nc2cc(C(F)(F)F)nc(Nc3nc4cc(C(=O)c5ccccc5)ccc4[nH]3)n2)ccc1OC | Not significant | <60% | <90%
CCN(CC)Cc1cc(Nc2cc(C)nc(Nc3nc4cc(Cl)c(Cl)cc4[nH]3)n2)ccc1O | Not significant | <60% | <90%
CCN(CC)Cc1cc(Nc2cc(C(F)(F)F)nc(Nc3nc4cc(Cl)c(Cl)cc4[nH]3)n2)cc(-c2ccccc2)c1O | Not significant | <60% | <90%
CCN(CC)Cc1cc(Nc2cc(-c3ccccc3)nc(Nc3nc4cc(Cl)c(Cl)cc4[nH]3)n2)ccc1O | Not significant | <60% | <90%
CN1CCN(Cc2cc(Nc3cc(C(F)(F)F)nc(Nc4nc5cc(C(=O)c6ccccc6)ccc5[nH]4)n3)ccc2O)CC1 | Not significant | <60% | <90%
CCN(CC)Cc1cc(Nc2cc(C(F)(F)F)nc(Nc3nc4cc(C(=O)c5ccccc5)ccc4[nH]3)n2)ccc1OC | Not significant | <60% | <90%
CCN(CC)Cc1cc(Nc2cc(C(F)(F)F)nc(Nc3nc4cc(Cl)c(Cl)cc4[nH]3)n2)ccc1OC | Not significant | <60% | <90%
CCN(CC)Cc1cc(Nc2cc(C(F)(F)F)nc(Nc3nc4cc(Cl)c(Cl)cc4[nH]3)n2)ccc1O | Not significant | <60% | <90%
CCOC(=O)N1CCN(Cc2cc(Nc3cc(C(F)(F)F)nc(Nc4nc5cc(Cl)c(Cl)cc5[nH]4)n3)cc(-c3ccccc3)c2O)CC1 | Not significant | <60% | <90%
CCN(CC)Cc1cc(Nc2cc(C)nc(Nc3nc4cc(Cl)c(Cl)cc4[nH]3)n2)ccc1OC | Not significant | <60% | <90%
CCOc1ccc(Nc2nc(Nc3nc4cc(Cl)c(Cl)cc4[nH]3)nc3c2CCCC3)cc1CN(CC)CC | Not significant | <60% | <90%
CCN(CC)Cc1cc(Nc2cc(C(F)(F)F)nc(Nc3nc4cc(C(=O)c5ccccc5)ccc4[nH]3)n2)ccc1O | Not significant | <60% | <90%
CCN(CC)Cc1cc(Nc2nc(Nc3nc4cc(Cl)c(Cl)cc4[nH]3)nc3c2CCCC3)ccc1O | Not significant | <60% | <90%
CCNCc1cc(Nc2nc(Nc3nc4cc(Cl)c(Cl)cc4[nH]3)nc3c2CCCC3)ccc1OC | Not significant | <60% | <90%
Cc1cc(Nc2ccc(O)c(CN3CCCC3)c2)nc(Nc2nc3cc(Cl)c(Cl)cc3[nH]2)n1 | Not significant | <60% | <90%
CN1CCN(Cc2cc(Nc3nc(Nc4nc5cc(Cl)c(Cl)cc5[nH]4)nc4c3CCCC4)ccc2O)CC1 | Not significant | <60% | <90%
CCOc1ccc(Nc2cc(C)nc(Nc3nc4cc(Cl)c(Cl)cc4[nH]3)n2)cc1CN(CC)CC | Not significant | <60% | <90%
